Literature values as cited in publication PMC4920590, “GPR142 Controls Tryptophan-Induced Insulin and Incretin Hormone Secretion to Improve Glucose Metabolism” (PLoS ONE, 2016).

System: Calcium-sensing receptor (CaSR)
Set-up: method as in PMID 24812056
Settings: rats; cited from earlier work

## C[C@@H](NCCCc1cccc(C(F)(F)F)c1)c1cccc2ccccc12 [Cinacalcet]
  glucose: lower glucose
